# Where two headings read alike, the source gives them in different places.
# What was measured:
# TLR4 = conditions: cited from earlier work
# [1] = test system: human rotavirus (strain Wa); assay: Rotavirus yield reduction assay; type: cell-based
# Method: The cells were treated at 37° C. with 25-, 27-, 7α-, 7β-hydroxycholesterol or 7-ketocholesterol at 5.6 μM for 20 hours, then washed with medium and infected with the human rotavirus at an MOI of 0.02 (strain Wa) activated with trypsin. After one hour, the cells were washed and fresh medium was added supplemented with 0.5 μg/ml of porcine trypsin. […] The assay was performed in triplicate and the results were confirmed on Caco2 cells. In an alternative protocol, the MA104 cells were treated with oxysterols—at the concentration indicated above—after the viral inoculum. The one-way variance analysis (ANOVA), followed by the Bonferroni test, was used to evaluate the statistical significance of the virus titre differences between the treated and non-treated samples. The significance was fixed at 95%.
# The results of the pre-treatment assays are illustrated in FIGS. 5 (MA104 cells) and 6 (Caco2 cells).
# human rhinovirus 1A [2] = assay: Infectivity assay with rhinovirus (plaque count, HeLa cells)
# Method: The human rhinovirus 1A (ATCC® VR-1559) was acquired from ATCC. The virus was propagated in HeLa cells, at 33° C. with 5% of CO2. When the cytopathic effect (CPE) had fully developed, cells and supernatants were collected, frozen and thawed three times, clarified and divided into aliquots. The viruses were kept at −70° C. The rhinovirus titres were determined by means of the standard plaque assay. In short, the HeLa cells were seeded 2 days prior to the infection in plates with 96 wells, reaching 60%-70% confluence at the time of the infection. The viral suspension was serially diluted in DMEM supplemented with 2% fetal bovine serum and inoculated; the infected wells were incubated at 33° C. for 1 hour, allowing the viruses to adhere and enter the cells. The cells were subsequently washed with medium and covered with a 1:1 mixture of 1.6% SeaPlaque agarose (BioWhittaker Molecular Applications) and DMEM 2X [26.76 g DMEM (Gibco BRL), 20 ml of L-glutamine (Gibco BRL), 4.4 g of sodium bicarbonate (Sigma, St. Louis, Mo.), FBS 40 ml (Sigma, St. Louis, Mo.) and 1000 ml of water]. The plates were incubated at 33° C. for 3 days. At the end of the incubation, the plates were fixed with 7.5% formaldehyde (Fluka) and coloured with crystal violet (Sigma, St. Louis, Mo.). The number of plaques formed was then counted; the virus titres were expressed in terms of plaque-forming units per ml (PFU/ml).
# The HeLa cells, kept in DMEM supplemented with 10% FBS and 1% Zell Shield, were seeded (at 8×10^4 cells/well) in plates with 24 wells. The medium was removed and the cells were infected with 200 microlitres/well containing approximately 30 PFU of a stock of human rhinovirus 1A. The infected cells were incubated at 33° C. for 1 h, allowing the virus to adhere and enter the cells. […] The plates were incubated at 33° C. for 5 days. After the incubation, the plates were fixed with formaldehyde at 7.5% (Fluka), coloured with crystal violet (Sigma, St. Louis, Mo.) and the number of plaques formed was counted. The oxysterol concentration values able to determine 50% or 90% of the antiviral effect (EC50 and EC90 respectively) were calculated by means of regression analysis using the dose-response curves generated by the experimental data, using PRISM 5.00 (GraphPad Software, San Diego, Calif., USA).
# human rotavirus Wa [3] = assay: Infectivity assay for rotavirus, MA104 cells, strain Wa
# Method: (§2) The strains of human rotavirus Wa (ATCC® VR-2018), WI61 (ATCC® VR-2551), HRV 408 (ATCC® VR-2273), HRV 248 (ATCC® VR-2274) and DS-1 (ATCC® VR-2550) were acquired from the American Tissue Culture Collection (ATCC); the viruses were activated with 5 μg/ml porcine pancreatic trypsin of type IX (Sigma, St. Louis, Mo.) for 30 minutes at 37° C. and propagated in MA104 cells using MEM containing 0.5 μg of trypsin per ml as described previously (27).
# (§3) The antiviral effectiveness of the oxysterols of the invention was determined by means of infectivity inhibition assay. The assays were performed with confluent monolayers of MA104 cells seeded in plates with 96 wells, as described previously (28). […] The control samples were prepared by treating the cells with culture medium with the addition of equal volumes of ethanol. The cells were then washed with medium, and the rotavirus infection was performed at a multiplicity of infection (MOI) of 0.02. After the infection, the cells were washed with medium and incubated at 37° C. in an incubator humidified at 5% (vol/vol) CO2-95% (vol/vol) of air. After 16 hours, the infected cells were fixed with a cold acetone-methanol mixture (50:50), and the virus titres were determined by means of indirect immunocytochemistry. The inhibition of the virus infectivity was expressed as a percentage comparing the mean number of infective events in the treated and non-treated samples±the standard deviations. Where possible, the values of the oxysterol concentrations able to determine 50% or 90% of the antiviral effect (EC50 and EC90 respectively) were calculated by means of regression analysis using the dose-response curves generated by the experimental data, with the use of PRISM 5.00 (GraphPad Software, San Diego, Calif., USA).
# PsV of HPV-16 = assay: microbe, parasite or virus in culture; type: cell-based, human papillomavirus
# human rhinovirus 1A [4] = assay: Rhinovirus yield reduction assay; conditions: HeLa cells, 5.6 μM after infection, collected 5 days after the infection
# Method: Each well was inoculated with 200 μl of a stock of human rhinovirus 1A containing approximately 30 PFU per well and incubated for 1 hour. […] The infected cells and the supernatants were collected 5 days after the infection (when a complete CPE was visible), and titred by means of the standard plaque method, as described above.
# human rotavirus HRV 248 = assay: Infectivity assay for rotavirus, MA104 cells, strain HRV 248
# Method: as §2, §3
# rotavirus = assay: Rotavirus cell entry kinetics; type: cell-based; conditions: MA104 cells; for entry of the rotavirus into the cells (infective events): 1.9 μM for 20 hours, MOI 0.02
# Method: To measure the entry speed of the rotavirus into the cells, confluent monolayers of MA104 cells (cultivated in plates with 96 wells) were treated with 25OHC, 27OHC or 7κC at 1.9 μM at 37° C.; after 20 hours, the cells were washed extensively with cold medium and left to cool on ice. […] The non-bound viruses were then eliminated by washing, medium was added at 37° C., and the plates were incubated at 37° C. in a humidified atmosphere. At fixed times (i.e. 0, 15, 30, 45, 60, 75 and 90 minutes after the virus-cell adhesion), the medium was extracted from the wells and the viral particles still present on the surface of the cells were eliminated by means of two rapid washing operations with EGTA 3 mM in PBS, followed by incubation in warm medium. After reaching the last time point (90 minutes from the virus-cell adhesion), the plates with 96 wells were placed in an incubator (37° C., 5% CO2), and the infection was left to proceed for a further 16 hours. The cells were then fixed and coloured as described above. The quantity of viral particles that entered the cells at each time point was compared with the quantity of virus that entered when no washing with EGTA was performed (100% entry). The ANOVA, followed by the Bonferroni test, was used to evaluate the statistical significance of the differences between the treated and non-treated samples. The significance was fixed at the level of 95%.
# As a control experiment, the same treatment and infection protocol was performed on MA104 cells, cultivated in a plate with 6 wells. In this experiment, after reaching the last time point of the entry measurement (90 minutes), the cells were lysed, the proteins extracted were denatured by boiling for 5 minutes, then separated by electrophoresis on sodium dodecylsulfate gel with 12% polyacrylamide (SDS-12%PAGE) and transferred to a polyvinylidene difluoride (PVDF) membrane. The protein of the intermediate capsid VP6 was detected using the murine monoclonal antibody 2B4 (mab0036-P, CovalAb) at a dilution 1:750, followed by secondary antibody IgG-HRP (Santa Cruz Biotechnology Inc.). The actin was detected using the anti-actin murine monoclonal antibody MAB1501R (Millipore), followed by antibody IgG-HRP (Santa Cruz Biotechnology Inc.). The density of the bands was compared using the ImageJ software, and the intensity of the actin bands was used to normalize the values. The ANOVA, followed by the Bonferroni test, was used to evaluate the statistical significance of the differences between the treated and the non-treated samples. The significance was fixed at the level of 95%. The results are reported in FIG. 11 and are expressed as a percentage, comparing treated cells with cells incubated with culture medium.
# TLR3 = assay: Quantitative real time RT-PCR of TLR-3 in Caco2 cells; type: cell-based, human; conditions: CaCo2 intestinal cells, 1.9 μM, 30 minutes to 6 hours
# Method: The Caco2 cells were cultivated in DMEM medium containing 10% serum and seeded in 25 cm^2 flasks (8 million confluence cells). The next day the cells were treated, in DMEM medium containing 2% serum, with 1.9 μM 25OHC or 27OHC (dissolved in ethanol) for 30 minutes, 1, 2, 3, 4, 5 or 6 hours. Extraction of the total RNA was performed using the TRIzol Reagent (Applied Biosystems, Monza, Italy) and the quantity and purity (A260/A280 ratio) of the extracted RNA were spectrophotometrically measured. Subsequently, 2 μg of RNA were retrotranscribed using the High-Capacity cDNA Reverse Transcription Kit (Applied Biosystems). Quantitative RT-PCR was performed with 30 ng of cDNA using the “TaqMan Gene Expression Assay kits” for TLR-3 and β-actin, TaqMan Fast Universal PCR Master Mix, and 7500 Fast Real-Time PCR System (Applied Biosystems). For each gene considered, the threshold cycle (Ct) was determined and the results were normalized using β-actin as a reference gene. The relative quantification was performed using a mathematical method previously published (29). In FIGS. 1a-1b, the results are reported as increment of the genic expression (Fold change, Fc) of the treated samples with respect to the controls.
# human rotavirus DS-1 = assay: Infectivity assay for rotavirus, MA104 cells, strain DS-1
# Method: as §2, §3
# HPV PsV (protein L1) = assay: Assay for adhesion of the papillomavirus to the cell surface: Western blot analysis; type: cell-based, human papillomavirus; conditions: Hela cells treated 16 hours, PsV 4 hours at 4° C.
# Text: L1 was detected using the murine monoclonal antibody (Ab30908, Abcam, Cambridge, UK) at a dilution of 1:2000, followed by secondary antibody IgG-HRP (Santa Cruz Biotechnology Inc.). The actin was detected using an anti-actin murine monoclonal antibody (MAB1501R, Millipore), followed by secondary antibody IgG-HRP (Santa Cruz Biotechnology Inc.).
# human rotavirus HRV 408 = assay: Infectivity assay for rotavirus, MA104 cells, strain HRV 408
# Method: as §2, §3
# LXR = conditions: cited from earlier work
# human rotavirus [5] = assay: Target identification by siRNA sensitization (TISS), human rotavirus, Caco2 cells; conditions: oxysterol at its EC50
# Method: This mechanism of action vis-à-vis the rotavirus was therefore investigated, performing a target identification assay by means of sensitization with short interfering RNA (siRNA). The Caco2 cells (for the experiments with human rotavirus) or the HeLa cells (for the experiments with human papillomavirus) were seeded in a plate with 24 wells; during seeding, the cells were transfected with siRNA specific for OSBP and VAPA (at a concentration of 20 nM). […] After one day, the medium was removed and the cells inoculated with the respective viruses in the same time, temperature and MOI conditions described in the protocols of the infectivity or neutralization assays. The number of infected cells was evaluated as described in the preceding paragraphs.
# human rotavirus WI61 = assay: Infectivity assay for rotavirus, MA104 cells, strain WI61
# Method: as §2, §3
# human rotavirus Wa [6] = assay: Infectivity assay for rotavirus repeated on Caco2 cells, strain Wa; type: cell-based; conditions: Caco-2
# Text: The results of the antiviral assays performed treating with 25OHC and 27OHC were confirmed repeating the infectivity assays on Caco2 cells.
# human papillomavirus = assay: Antiviral assay with U18666A, papillomavirus, HeLa cells; type: cell-based; conditions: HeLa cells treated 20 hours
# Method: (§1) According to the hypothesis formulated previously, the oxysterols determine an accumulation of the intracellular cholesterol at endosomal level, inhibiting entry of the rotavirus. […] U18666A is an amphipathic steroid, widely used to block the intracellular transport of cholesterol, with consequent accumulation of the same at the level of the endosome membranes (31). In short, antiviral assays were performed treating the MA104 cells (for the rotavirus) or HeLa cells (for the papillomavirus) for 20 hours with scalar concentrations of U18666A (0.07 to 50 μM) and then infecting for one hour with the respective viruses. The effect of the treatment on the infectivity of the two viral models was evaluated as described previously. […] The experiment described therefore constitutes solid proof of the principle of the mechanism of action proposed.
# human rotavirus [7] = assay: Antiviral assay with U18666A, rotavirus, MA104 cells; type: cell-based; conditions: MA104 cells treated 20 hours, 0.07 to 50 μM
# Method: as §1
# [8] = MA104 cells, post-infection treatment 5.6 μM
# [9] = MA104 cells, pre-treatment 5.6 μM for 20 hours, collected 48 hours after infection
# [10] = pre-treatment assay, 20 hours prior to the infection
# [11] = Caco2 cells, pre-treatment 5.6 μM for 20 hours, collected 48 hours after infection
smiles,measurement,setting,value
"CC(C)CCC[C@@H](C)[C@H]1CC[C@H]2[C@@H]3[C@@H](O)C=C4C[C@@H](O)CC[C@]4(C)[C@H]3CC[C@]12C [7βOHC, 7β-hydroxycholesterol]",induction of TLR4,TLR4; SH-SY5Y neuroblastoma cells,active in inducing TLR4
same,production of virus progenies,[1]; [8],antiviral activity
same,production of virus progenies,[1]; [9],significant (P<0.05) antiviral activity
"CC(C)C(O)CC[C@@H](C)[C@H]1CC[C@H]2[C@@H]3CC=C4C[C@@H](O)CC[C@]4(C)[C@H]3CC[C@]12C (stereo partly shown) [24OHC, 24-hydroxycholesterol]",EC50,human rhinovirus 1A [2]; [10],770 nM
same,EC90,human rhinovirus 1A [2]; [10],3100 nM
same,EC50,human rotavirus Wa [3],390 nM
same,EC90,human rotavirus Wa [3],1600 nM
same,EC50,"PsV of HPV-16; Human papillomavirus, HeLa",4380 nM
"CC(C)CCC[C@@H](C)[C@H]1CC[C@H]2[C@@H]3[C@H](O)C=C4C[C@@H](O)CC[C@]4(C)[C@H]3CC[C@]12C [7αOHC, 7alpha-hydroxycholesterol]",inhibition of the infectivity of HPV,PsV of HPV-16,not able to inhibit the infectivity of HPV
same,production of virus progenies,[1]; [8],antiviral activity
"C[C@@H](CO)CCC[C@@H](C)[C@H]1CC[C@H]2[C@@H]3CC=C4C[C@@H](O)CC[C@]4(C)[C@H]3CC[C@]12C [27OHC, 27-hydroxycholesterol]",production of viral progenies,human rhinovirus 1A [4],totally inhibit the production of viral progenies
same,EC50,human rhinovirus 1A [2]; post-infection treatment assay,480 nM
same,EC90,human rhinovirus 1A [2]; post-infection treatment assay,1270 nM
same,EC50,human rhinovirus 1A [2]; [10],620 nM
same,EC90,human rhinovirus 1A [2]; [10],2170 nM
same,EC50,human rotavirus HRV 248,230 nM
same,EC90,human rotavirus HRV 248,3840 nM
same,EC50,human rotavirus Wa [3],260 nM
same,EC90,human rotavirus Wa [3],1730 nM
same,EC50,"PsV of HPV-16; C33A cells, treated 16 hours before PsV, read-out: EC50",6870 nM
same,EC50,"PsV of HPV-16; Human papillomavirus, HeLa",9330 nM
same,EC50,"PsV of HPV-16; Human papillomavirus, SiHa",28900 nM
same,entry of the rotavirus into the cells (infective events),rotavirus,"able to limit the entry of the viral particles into the cells, shows a lesser effectiveness"
same,viral antigen VP6 within the cells (Western blot),rotavirus; 90 minutes after virus-cell adhesion,significantly (p<0.05) lower quantity than the non-treated control
same,TLR3 expression,TLR3,marked hyperexpression of TLR3
same,EC50,human rotavirus DS-1,720 nM
same,EC90,human rotavirus DS-1,5850 nM
same,induction of TLR4,TLR4; SH-SY5Y neuroblastoma cells,active in inducing TLR4
same,induction of TLR4,TLR4; macrophage cell lines,active in inducing TLR4
same,adhesion of the PsV to the cell surface (L1 Western blot),HPV PsV (protein L1),not able to inhibit adhesion of the PsV to the cell surface
same,production of virus progenies,[1]; [11],significantly limit (p<0.05) the production of virus progenies
same,production of virus progenies,[1]; [8],confirm the in vitro effectiveness
same,production of virus progenies,[1]; [9],significantly limit (p<0.05) the production of virus progenies
same,EC50,human rotavirus HRV 408,400 nM
same,EC90,human rotavirus HRV 408,4560 nM
same,LXR ligand activity,LXR,optimal ligands of LXR
same,antiviral activity in cells with OSBP silenced,human rotavirus [5]; OSBP siRNA 20 nM,higher
same,antiviral activity in cells with VAP-A silenced,human rotavirus [5]; VAPA siRNA 20 nM,higher
same,EC50,human rotavirus WI61,190 nM
same,EC90,human rotavirus WI61,740 nM
same,EC50,human rotavirus Wa [6],440 nM
same,EC90,human rotavirus Wa [6],2500 nM
CCN(CC)CCO[C@H]1CC[C@@]2(C)C(=CC[C@@H]3[C@@H]2CC[C@]2(C)C(=O)CC[C@@H]32)C1 [U18666A],EC50,human papillomavirus,1740 nM
same,inhibition of rotavirus infectivity,human rotavirus [7],antiviral activity is so high that calculation of the EC50 is not possible
"CC(C)CCC[C@@H](C)[C@H]1CC[C@H]2[C@@H]3C(=O)C=C4C[C@@H](O)CC[C@]4(C)[C@H]3CC[C@]12C [7κC, 7-ketocholesterol]",entry of the rotavirus into the cells (infective events),rotavirus,does not cause a significant reduction (p>0.05) in the number of infective events
same,production of virus progenies,[1]; [11],significantly limit (p<0.05) the production of virus progenies
same,production of virus progenies,[1]; [8],antiviral activity
same,production of virus progenies,[1]; [9],significantly limit (p<0.05) the production of virus progenies
same,LXR ligand activity,LXR,no ligand activity

# Reference: patent US20170137458A1, “OXYSTEROLS FOR USE IN THE TREATMENT AND PREVENTION OF DISEASES CAUSED BY VIRUSES” (priority 2014, published 2017)
